Assay results published in paper PMC7614227, “Structural Basis of Mammalian Respiratory Complex I Inhibition by Medicinal Biguanides” (Science (New York, N.Y.), 2023).

What was measured:
[1] = target: T1, complex I catalysis in bovine heart mitochondrial membranes (Bos taurus, UniProt P03887+P03898+P17694+P42026); experiment: NADH:O2 oxidoreduction by bovine heart mitochondrial membranes; assay type: biochemical
T1 construct: Fresh cow hearts were purchased from an abattoir; tissue C; Humphreys and Sons, Chelmsford, U.K. (abattoir); host or cells: bovine heart mitochondrial membranes

[2] = target: T2, detergent-solubilized, purified bovine complex I (Bos taurus, UniProt P03887+P03898+P17694+P42026); experiment: NADH:decylubiquinone (NADH:DQ) oxidoreduction by purified complex I; assay type: biochemical
T2 construct: from tissue; host or cells: bovine heart mitochondrial membranes, solubilized in DDM, Q-Sepharose and Superose 6 chromatography
Protocol: (§1) and filtered (0.2 µM). The complexes were then separated by ion-exchange chromatography (Q-
(§2) Sepharose, GE Healthcare, as described previously (62)) and complex I-containing fractions
(§3) pooled and concentrated using a 50 kDa MWCO spin column (Merck Millipore). The samples
(§4) were clarified using a Spin-X 0.22 µm centrifugal filter (Corning) then applied to a Superose 6
(§5) Increase 5/150 (inhibitor-free dataset) or 10/300 column (biguanide-inhibited dataset) (GE
(§6) Healthcare) and eluted in 20 mM Tris-HCl (pH 7.14 at 20 ° C), 150 mM NaCl and 0.05% DDM.
(§7) Complex I elutes as a monodisperse peak at ~ 1.6 or 13 mL from the superose 6 increase 5/150 or
(§8) 10/300 columns, respectively (Fig. S3). The peak fractions for the biguanide-inhibited dataset were
(§9) concentrated using a 50 kDa MWCO spin column (Merck Millipore) and the protein concentration
(§10) quantified using a nanodrop UV-vis spectrophotometer (e280 = 0.2 mg-1 mL); IM1092 was then […]
(§11) µg of purified complex I was reduced with 10 mM dithiothreitol and analyzed on a Novex Tris- […]
(§12) NADH:O2 oxidoreduction by membranes was measured at 10 µg-protein mL-1 using 200 μM […]
(§13) assays. NADH:decylubiquinone (NADH:DQ) oxidoreduction by complex I was measured at 0.5 […]
(§14) measured by linear regression of the maximal slope and quantified by the absorbance of NADH at […]
(§15) was determined to evaluate the active/deactive ratio by incubating the membranes (2 mg-protein […]

[3] = test system: HEPG2 C3A cells; experiment: Cellular oxygen consumption (Seahorse XFe96, rotenone-sensitive OCR); assay type: cell-based
Protocol: from the weighed sample (1.15 mg) and solvent (0.78956g) masses of 4.31 mM, implying a purity of 93%. The proton NMR spectrum is consistent with the presented chemical structure and with the described shifts for this compound (27). The shifts observed here were ¹H NMR (DMSO, 400 […]
Cellular oxygen consumption measurements
HEPG2 C3A (ATCC CRL10741) cells were a kind gift from AstraZeneca and were authenticated by STR profiling (Eurofins). Cells were grown in Dulbecco's modified Eagle's medium (DMEM, Thermo Fisher Scientific) containing 10 mM glucose supplemented with 10% fetal bovine serum (Thermo Fisher Scientific) at 37 °C in 5% CO2. Per well, 2×10^4 cells were plated into an XFe96 (Agilent) cell plate and incubated for 24 h at 37 °C in 5% CO2. […] OCRs (oxygen consumption rates) were measured in a XFe96 Seahorse extracellular flux analyzer; 2 μM rotenone was used to inhibit complex I at the end of the assay. To calculate the normalized rotenone-sensitive OCR rates, the rotenone-insensitive rates (determined at the end of the experiment) were subtracted, and the traces normalized to 100% at the measurement before IM1092 addition. […] IC50 values were calculated using the normalized rates, following 6 hours of incubation […]

[4] = test system: T3, complex I in bovine heart mitochondrial membranes; experiment: NEM sensitivity of NADH:O2 activity (active/deactive ratio); assay type: biochemical; conditions: as-prepared membranes incubated with 200 μM IM1092 and NEM at 4 °C
T3 construct: Fresh cow hearts were purchased from an abattoir; tissue C; Humphreys and Sons, Chelmsford, U.K. (abattoir); host or cells: bovine heart mitochondrial membranes
Protocol: as §1, §2, §3, §4, §5, §6, §7, §8, §9, §10, §11, §12, §13, §14, §15

[5] = test system: mitochondrial glycerophosphate dehydrogenase (mGPD); conditions: cited from earlier work
[6] = Fig. 1B, membranes of differing deactive complex I content, 1st labelled value (deactive content not given)
[7] = Fig. 1B, membranes of differing deactive complex I content, 2nd labelled value (deactive content not given)
[8] = Fig. 1B, membranes of differing deactive complex I content, 3rd labelled value (deactive content not given)
[9] = Fig. 1C, pH 9D(i): pH 9 deactivated membranes with antimycin A and AOX
[10] = Fig. 1C, pH 9D: pH 9 deactivated membranes

| SMILES | IC50 [1, 6] [µM] | IC50 [1, 7] [µM] | IC50 [1, 8] [µM] | IC50 ([1]; Fig. 1C, pH 6) [µM] | IC50 ([1]; Fig. 1C, pH 7) [µM] | IC50 ([1]; Fig. 1C, pH 8) [µM] | IC50 ([1]; Fig. 1C, pH 9) [µM] | IC50 [1, 9] [µM] | IC50 [1, 10] [µM] | IC50 ([2]; catalysis of detergent-solubilized, purified bovine complex I (NADH:DQ)) [µM] | control catalytic rate recovered after dilution into inhibitor-free assay buffer ([2]; complex I incubated with 350 μM IM1092 as for cryo-EM grids, then diluted, reversibility) [%] | effect on cellular oxygen consumption [3] | deactive content of membranes [4] | inhibition of human mGPD [5] |
| --- | --- | --- | --- | --- | --- | --- | --- | --- | --- | --- | --- | --- | --- | --- |
| N=C(N=C(N)N)NCCc1ccc(I)c(Cl)c1 [IM1092] | 32 | 20 | 4 | 43 | 27 | 21 | 4 | 0.816 | 0.846 | 86 | 98 | inhibits cellular oxygen consumption | essentially the same deactive content as biguanide-free controls |  |
| CN(C)C(=N)N=C(N)N [Metformin, metformin, reference compound] | 99000 | 52000 | 33000 |  |  | 38000 | 9000 | 8000 | 15000 |  |  |  |  | not to inhibit |
